For two compounds, Ki results are on record in PMC3144702, “Structural and Functional Analysis of the Complex between Citrate and the Zinc Peptidase Carboxypeptidase A” (2011).

A word on the Ki: it is the equilibrium dissociation constant of an inhibitor or competing ligand from its target. A low value points to tighter binding.

Assay [1] has as its target T1, carboxypeptidase A (Bos taurus, UniProt P00730).
T1 construct: gene CPA1
T1 sequence (P00730 111-419): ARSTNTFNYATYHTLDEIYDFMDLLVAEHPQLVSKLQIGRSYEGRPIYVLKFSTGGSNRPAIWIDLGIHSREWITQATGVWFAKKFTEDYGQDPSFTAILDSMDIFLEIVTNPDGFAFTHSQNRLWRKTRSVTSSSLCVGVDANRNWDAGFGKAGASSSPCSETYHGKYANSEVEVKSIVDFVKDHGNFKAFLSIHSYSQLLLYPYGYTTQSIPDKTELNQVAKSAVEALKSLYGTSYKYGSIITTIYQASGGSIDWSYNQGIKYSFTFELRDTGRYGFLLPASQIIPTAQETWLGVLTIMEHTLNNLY
Kind of assay: competitive enzyme inhibition assay with AAFP substrate, absorbance; Ki from IC50 by Cheng-Prusoff. Type of assay: biochemical.

For assay [2], the target named is T1, carboxypeptidase A. Kind of assay: X-ray crystal structure at […] Å; Ki from competitive inhibition assay with AAFP substrate. Type of assay: biochemical.

`O=C(O)C[C@@H](Cc1ccccc1)C(=O)O` [BzlSA, benzylsuccinic acid] registered a Ki on carboxypeptidase A [1] of 0.52 µM. Turning to `O=C(O)CC(O)(CC(=O)O)C(=O)O` [citrate], the inhibition constant Ki at carboxypeptidase A [2] is 5000 µM.
